Measurements published in patent publication US20230416329A1, “A PEPTIDE WITH DISULFIDE BONDS AND INHIBITORY ACTIVITY AGAINST SERINE PROTEASES, DERIVED HYBRID PEPTIDES THEREOF, AND USES THEREOF” (INSTITUTE OF MATERIA MEDICA , CHINESE ACADEMY OF MEDICAL …, priority 2020, published 2023).
Bridge positions count the residues as written; N and C are the ends. Square brackets hold non-standard residues; d marks the D form. Peptide text beside a SMILES is read from it. Hyp = O=C(O)[C@@H]1C[C@@H](O)CN1

Target: α-chymotrypsin (Bos taurus, UniProt P00766)
Assay: Chymotrypsin inhibitory activity of peptides (AAPFpNA hydrolysis; IC50, Ki, residual activity)
Format: biochemical
Details: for Ki: Ki=IC50/(1+S/Km), Km 0.38 mM; for IC50: chymotrypsin 30 nM, AAPFpNA 0.5 mM
Method: The inhibition constants of various synthetic active peptide inhibitors (molecular scaffolds) against seine proteases were measured. The substrates N-succinyl-Ala-Ala-Pro-Phe-p-nitroaniline (AAPFpNA), Nα—Benzoyl-L-arginine-4-nitroaniline hydrochloride (BApNA) and N-succinyl-[…] (AAApNA) are used in competitive binding reaction to determine the inhibitory activities against α-chymotrypsin, bovine trypsin, and porcine pancreatic elastase, respectively. Experiments for α-chymotrypsin and bovine trypsin inhibition were measured in 20 mM CaCl2, 50 mM Tris-HCl buffer (pH 7.8), and that for porcine elastase inhibition was measured in 50 mM Tris-HCl buffer (pH 8.0). The concentration of the peptide was measured using optical density (OD) at 280 nm. The Michaelis constant (Km) of the enzyme hydrolysis substrate is calculated from the initial rate of substrate hydrolysis at 405 nm. The absorbance value of the substrate was measured at 405 nm after complete hydrolysis. All data were processed using nonlinear regression.
• (1) Added a total 190 μL of reaction buffer (20 mM CaCl2, 50 mM Tris-HCl (pH 7.8)) into the 96 well plate, followed by preheating at 37° C. for 15 min. Then added 2 μL of different concentrations of substrates (p-Nitroanilide, pNA, 0.5% in DMSO), and mixed by centrifugation at 500 rpm for 1 min. Finally, the plate was incubated at 37° C. for 20 min, and the absorbance value at 405 nm was measured. In the 200 μL of reaction system, the final concentrations of pNA were 0, 0.025, 0.05, 0.075, 0.1, 0.125, 0.15, 0.25, and 0.3 mM, respectively. Make three repetitions for each concentration and plot the OD405 m value with pNA concentration to obtain the standard curve. • (2) Added a total 190 μL of reaction buffer (20 mM CaCl2, 50 mM Tris-HCl (pH 7.8)) and 8 μL of 0.75 μM chymotrypsin into the 96 well plate, followed by preheating at 37° C. for 5 min. Then added 2 μL of different concentrations of substrates (AAPFpNA, dissolved in DMSO), and mixed by centrifugation at 500 rpm for 1 min. Finally, the plate was incubated at 37° C. for 20 min, and the absorbance value at 405 nm was measured. In the 200 μL of reaction system, the final concentrations of AAPFpNA were 0, 0.125, 0.25, 0.285, 0.33, 0.4, and 0.5 mM, respectively. Make three repetitions for each concentration and plot the OD405 nm value with time to obtain the corresponding curve. Divide the slope of the curve by the slope of the standard curve and the enzyme concentration to obtain the initial velocity V0 (mM/(min*mM protein). Plot the initial velocity V0 with the concentration of substrate AAPFpNA using Prism software, and the Michaelis constant Km value of chymotrypsin hydrolyzing AAPFpNA was obtained.
• (1) Added a total 190 μL of reaction buffer (20 mM CaCl2, 50 mM Tris-HCl (pH 7.8)), different concentrations of anti-chymorypsin peptides (CHs) into the pre-cold 96 well plate, followed by preheating at 37° C. for 5 min and centrifugated at 500 rpm for 1 min and allowed to stand for 4 minutes. Then added 8 μL of 750 nM chymotrypsin and incubated at 37° C. for 10 min, and centrifugated at 500 rpm for 1 min and allowed to stand for 9 minutes. Finally, added 2 μL of 50 mM AAPFpNA, and mixed by centrifugation at 500 rpm for 1 min. The plate was incubated at 37° C. for 90 min, and the absorbance value at 405 nm was measured. Three repetitions were made, and only reaction buffer and substrate were added in the blank control as the minimum absorption value (Min OD405 nm); Only reaction buffer, enzyme and substrate were added in the negative control as the maximum absorption value (Max OD405). • (2) In the 200 μL of reaction system, the final concentrations of chymotrypsin and AAPFpNA were 30 nM and 0.5 mM, respectively. • (3) Data statistics
Residual activity of enzyme (%)=(1−(Max OD405 nm−Sample OD405 nm)/(Max OD405 nm−Min OD405 nm))*100 […]

CC[C@H](C)[C@@H]1NC(=O)[C@H](CO)NC(=O)[C@H](Cc2ccccc2)NC(=O)[C@H]([C@@H](C)O)NC(=O)CNC(=O)[C@H](Cc2ccccc2)NC(=O)CNC(=O)[C@@H](N)CSSC[C@@H](C(=O)N[C@@H](Cc2ccc(O)cc2)C(=O)NCC(=O)O)NC(=O)[C@H](CCC(N)=O)NC(=O)[C@@H]2CCCN2C(=O)[C@@H]2CCCN2C1=O [CH7] (H-CGFGTFSIPPQCYG-OH; disulfide 1-12; N-terminus and C-terminus assumed)
inhibitory activity against chymotrypsin (in words): certain inhibitory activity against chymotrypsin
Ki: 9.65 µM
IC50: 22.3 µM
Residual activity of chymotrypsin (peptide 0.01 μM): 100.9 ± 1.3%
Residual activity of chymotrypsin (peptide 0.1 μM): 98.8 ± 3.9%
Residual activity of chymotrypsin (peptide 1 μM): 101.7 ± 6.3%
Residual activity of chymotrypsin (peptide 10 μM): 77.7 ± 2.0%
Residual activity of chymotrypsin (peptide 25 μM): 46.0 ± 1.0%
Residual activity of chymotrypsin (peptide 50 μM): 25.8 ± 0.9%
Residual activity of chymotrypsin (peptide 100 μM): 14.1 ± 0.9%
Residual activity of chymotrypsin (peptide 300 μM): 4.1 ± 0.1%
Residual activity of chymotrypsin (peptide 1000 μM): 1.2 ± 0.1%

CC[C@H](C)[C@@H]1NC(=O)[C@H](CO)NC(=O)[C@H](Cc2ccc(O)cc2)NC(=O)[C@H]([C@@H](C)O)NC(=O)[C@H](C)NC(=O)[C@H](CO)NC(=O)CNC(=O)CNC(=O)[C@@H](N)CSSC[C@@H](C(=O)N[C@@H](Cc2ccc(O)cc2)C(=O)O)NC(=O)[C@H](CCC(N)=O)NC(=O)[C@@H]2CCCN2C(=O)[C@@H]2CCCN2C1=O [CH29] (H-CGGSATYSIPPQCY-OH; disulfide 1-13; N-terminus and C-terminus assumed)
IC50: > 50 µM

CC[C@H](C)[C@@H]1NC(=O)[C@H](CO)NC(=O)[C@H](Cc2ccc(O)cc2)NC(=O)[C@H]([C@@H](C)O)NC(=O)[C@@H](NC(=O)[C@@H](N)Cc2ccccc2)CSSC[C@@H](C(=O)N[C@@H](Cc2ccc(O)cc2)C(=O)O)NC(=O)[C@H](CCCCN)NC(=O)[C@H](C)NC(=O)[C@@H]2CCCN2C1=O [CH36] (H-FCTYSIPAKCY-OH; disulfide 2-10; N-terminus and C-terminus assumed)
Ki: 1.39 µM
IC50: 3.23 µM

C[C@@H]1NC(=O)[C@@H](NC(=O)[C@@H](N)Cc2ccccc2)CSSC[C@@H](C(=O)N[C@@H](CCC(N)=O)C(=O)O)NC(=O)[C@H](CCCCN)NC(=O)[C@@H]2CCCN2C(=O)[C@@H]2CCCN2C(=O)[C@H](CC(N)=O)NC(=O)[C@H](CO)NC(=O)[C@H](Cc2ccc(O)cc2)NC1=O [CH44] (H-FCAYSNPPKCQ-OH; disulfide 2-10; N-terminus and C-terminus assumed)
Ki: 8.59 µM
IC50: 19.9 µM

CC[C@H](C)[C@@H]1NC(=O)[C@H](CO)NC(=O)[C@H](Cc2ccccc2)NC(=O)[C@H]([C@@H](C)O)NC(=O)[C@H](C)NC(=O)[C@H](CO)NC(=O)CNC(=O)[C@@H](N)CSSC[C@@H](C(=O)N[C@@H](Cc2ccc(O)cc2)C(=O)NCC(=O)O)NC(=O)[C@H](CCC(N)=O)NC(=O)[C@@H]2CCCN2C(=O)[C@@H]2CCCN2C1=O [CH13] (H-CGSATFSIPPQCYG-OH; disulfide 1-12; N-terminus and C-terminus assumed)
inhibitory activity against chymotrypsin (in words): good inhibitory activity
Ki: 2.43 µM
IC50: 5.62 µM

CC[C@H](C)[C@@H]1NC(=O)[C@H](CO)NC(=O)[C@H](Cc2ccc(O)cc2)NC(=O)[C@H]([C@@H](C)O)NC(=O)[C@@H](NC(=O)[C@@H](N)CO)CSSC[C@@H](C(=O)N[C@@H](Cc2ccc(O)cc2)C(=O)NCC(=O)O)NC(=O)[C@H](CCC(N)=O)NC(=O)[C@@H]2CCCN2C(=O)[C@@H]2CCCN2C1=O [CH4] (H-SCTYSIPPQCYG-OH; disulfide 2-10; N-terminus and C-terminus assumed)
Ki: 0.55 µM
IC50: 1.28 µM
Residual activity of chymotrypsin (peptide 0.001 μM): 103.2 ± 0.9%
Residual activity of chymotrypsin (peptide 0.01 μM): 101.8 ± 0.8%
Residual activity of chymotrypsin (peptide 0.1 μM): 100.7 ± 2.0%
Residual activity of chymotrypsin (peptide 0.3 μM): 86.7 ± 1.4%
Residual activity of chymotrypsin (peptide 0.6 μM): 70.4 ± 2.8%
Residual activity of chymotrypsin (peptide 2.5 μM): 34.6 ± 4.3%
Residual activity of chymotrypsin (peptide 7.5 μM): 13.8 ± 0.6%
Residual activity of chymotrypsin (peptide 10 μM): 9.3 ± 1.1%
Residual activity of chymotrypsin (peptide 100 μM): 0.7 ± 0.1%
Residual activity of chymotrypsin (peptide 1000 μM): 0.2 ± 0.0%

CC[C@H](C)[C@@H]1NC(=O)[C@H](CO)NC(=O)[C@H](Cc2ccc(O)cc2)NC(=O)[C@H]([C@@H](C)O)NC(=O)[C@@H](NC(=O)[C@@H](N)Cc2ccccc2)CSSC[C@@H](C(=O)N[C@@H](Cc2ccc(O)cc2)C(=O)NCC(=O)O)NC(=O)[C@H](CCC(N)=O)NC(=O)[C@@H]2C[C@@H](O)CN2C(=O)[C@@H]2CCCN2C1=O [CH52] (H-FCTYSIP[Hyp]QCYG-OH; disulfide 2-10)
Ki: 0.36 µM
IC50: 0.84 µM

CC[C@H](C)[C@@H]1NC(=O)[C@@H]2CCCN2C(=O)[C@@H]2CCCN2C(=O)[C@H]([C@@H](C)CC)NC(=O)[C@H](CO)NC(=O)[C@H](Cc2ccccc2)NC(=O)[C@H]([C@@H](C)O)NC(=O)[C@@H](NC(=O)[C@@H](NC(=O)CN)[C@@H](C)O)CSSC[C@@H](C(=O)N[C@@H](CC(N)=O)C(=O)N2CCC[C@H]2C(=O)N[C@@H](CC(N)=O)C(=O)O)NC1=O [CH25] (H-GTCTFSIPPICNPN-OH; disulfide 3-11)
Ki: 0.12 µM
IC50: 0.28 µM

CC[C@H](C)[C@@H]1NC(=O)[C@H](CO)NC(=O)[C@H](Cc2ccc(O)cc2)NC(=O)[C@H]([C@@H](C)O)NC(=O)[C@H](C)NC(=O)[C@H](Cc2ccccc2)NC(=O)CNC(=O)[C@@H](N)CSSC[C@@H](C(=O)N[C@@H](Cc2ccc(O)cc2)C(=O)NCC(=O)O)NC(=O)[C@H](CCC(N)=O)NC(=O)[C@@H]2CCCN2C(=O)[C@@H]2CCCN2C1=O [CH14] (H-CGFATYSIPPQCYG-OH; disulfide 1-12)
IC50: > 50 µM

CC[C@H](C)[C@H](N)C(=O)N[C@H]1CSSC[C@@H](C(=O)N[C@H](C(=O)O)[C@@H](C)CC)NC(=O)[C@H](CCC(N)=O)NC(=O)[C@H](C)NC(=O)[C@@H]2CCCN2C(=O)[C@H]([C@@H](C)CC)NC(=O)[C@H](CO)NC(=O)[C@H](Cc2ccccc2)NC(=O)[C@H]([C@@H](C)O)NC1=O [CH38] (H-ICTFSIPAQCI-OH; disulfide 2-10; N-terminus and C-terminus assumed)
Ki: 2.15 µM
IC50: 4.98 µM

CC[C@H](C)[C@@H]1NC(=O)[C@H](CO)NC(=O)[C@H](Cc2ccc(O)cc2)NC(=O)[C@H]([C@@H](C)O)NC(=O)[C@@H](NC(=O)[C@@H]2CCCN2)CSSC[C@@H](C(=O)N[C@@H](Cc2ccc(O)cc2)C(=O)O)NC(=O)[C@H](CCC(N)=O)NC(=O)[C@@H]2CCCN2C(=O)[C@@H]2CCCN2C1=O [CH51] (H-PCTYSIPPQCY-OH; disulfide 2-10; N-terminus and C-terminus assumed)
inhibitory activity against chymotrypsin (in words): good chymotrypsin inhibitory activity
